The values below are quoted from earlier work in patent publication US9663462B2, “Anti-parasitic methods and compositions utilizing diindolylmethane-related indoles” (BioResponse, L.L.C., priority 2006, dated 2017).

Each structure is given as a SMILES string. pIC50: −log10 of the molar value.

Data set [1] has as its system Mitogen Activated Protein Kinase (MAPK) cell signaling pathway. To be noted: cell culture.
In a further data set the test system is rainbow trout. To be noted: in vivo.
The subject of data set [2] is Human Papilloma Virus (HPV) oncogene altered cervical cancer cell lines.
The conditions of data set [3]: once formed from I3C.
The next data set relates to NFκB signaling pathway. To be noted: breast cancer cells.
For data set [4], the target named is Leishmania donovani topoisomerase I (LdTOPILS). To be noted: read-out: IC50, inhibition of Leishmania donovani topoisomerase I (LdTOPILS).
The conditions of data set [5]: metabolic half life of DIM.
Data set [6] relates to estrogen-dependent and independent breast cancer cells. To be noted: isolated DIM, cell culture.
Data set [7] deals with chemically induced forms of breast cancer. The settings on record: orally administered, animals.

`c1ccc2c(Cc3c[nH]c4ccccc34)c[nH]c2c1` [DIM, 3,3′-diindolylmethane]: the “activation of MAPK cell signaling pathway” value in [1] is listed as “activate”. In addition, the estrogenic activity result with rainbow trout and in the data set on breast cancer cells was “estrogenic” in each case. In [2], the induction of apoptosis entry is recorded as “induce apoptosis”. In addition, in [3], the stability in acid entry is given as “stable”. The “activation of the NFκB signaling pathway” value in the data set on NFκB signaling pathway is given as “reduce activation”. Also, in [4], the pIC50 was 5.92. The half-life in data set [5] was 2 to 7 h. Besides, the apoptosis promoting effects entry in data set [6] is “apoptosis promoting effects”. In addition, the “growth of chemically induced breast cancer” value in data set [7] is reported as “inhibits the growth”.
